Results published in ChEMBL document CHEMBL1142572, “A Madagascar Sponge Batzella sp. as a source of alkylated iminosugars” (2005).

System: Staphylococcus epidermidis
Assay: Antimicrobial activity against Staphylococcus epidermidis ATCC 12228
Format: functional

MIC, ≤ 6.3 µg/mL:
CCCCCCCCCCCC(O)C[C@H]1C[C@H](O)[C@@H](O)[C@@H](CO)N1 (stereo partly drawn) [BATZELLASIDE C]
CCCCCCCCCCC(O)C[C@H]1C[C@H](O)[C@@H](O)[C@@H](CO)N1 (stereo partly drawn) [BATZELLASIDE A]
CCCCCCCCCC(O)C[C@H]1C[C@H](O)[C@@H](O)[C@@H](CO)N1 (stereo partly drawn) [BATZELLASIDE B]
